Values joined by “and” are separate entries in the source; they are usually repeats but may differ in a detail not shown here. Equal entries are not always repeated.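 48-hour exposure; five concentrations; linearly interpolated endpoints. At the GI50, growth is halved. TGI is the concentration that stops growth completely.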
What was measured:
Assay in all cases: NCI tumour cell line growth inhibition, 48 h
LXFL 529 NSCLC = tested on: LXFL 529 NSCLC
SNB-78 CNS = tested on: SNB-78 CNS
KM20L2 colon = tested on: KM20L2 colon
DMS 114 small cell lung = tested on: DMS 114 small cell lung
MDA-N = tested on: MDA-N
RXF-631 renal = tested on: RXF-631 renal
XF 498 CNS = tested on: XF 498 CNS
M19-MEL melanoma = tested on: M19-MEL melanoma
HOP-18 NSCLC = tested on: HOP-18 NSCLC
P388 leukemia = tested on: P388 leukemia
P388/ADR leukemia = tested on: P388/ADR leukemia

Row | Structure (SMILES) | TGI (LXFL 529 NSCLC) [µM] | TGI (SNB-78 CNS) | TGI (KM20L2 colon) | TGI (DMS 114 small cell lung) | TGI (MDA-N) | TGI (RXF-631 renal) [µM] | TGI (XF 498 CNS) [µM] | TGI (M19-MEL melanoma) | TGI (HOP-18 NSCLC) | further results
1 | COC1CCCc2c(OC(C)=O)ccc(OC(C)=O)c21 (configuration not stated) | > 100 | > 100 µM | > 100 µM | > 100 µM | – | – | – | – | – | –
2 | O=C(Nc1cc(Cl)c(I)c(Cl)c1)C(F)(F)F | – | – | – | – | > 100 µM | – | – | – | – | –
3 | COc1ccc(-c2cc(=O)c3c(O)c(O)c(OC)cc3o2)cc1O | > 100 | – | > 100 µM | – | – | > 100 | > 100 | > 100 µM | > 100 µM | –
4 | NCC(=O)Nc1ccc(Cl)cc1C(=O)c1ccc[nH]1 | – | – | – | – | > 100 µM | – | – | – | – | –
5 | O=c1[nH]c2nc3ccccc3c(=O)n2nc1Cc1ccccc1 | > 100 | > 100 µM | > 100 µM | > 100 µM | – | – | – | – | – | –
6 | COc1ccccc1/C=C1\C(=O)N(C(=O)Cc2ccccc2)N=C1C | – | > 100 µM | – | > 100 µM | – | – | > 100 | > 100 µM | > 100 µM | –
7 | COCN1COCN(C)C1=O | – | > 100 µM | > 100 µM | > 100 µM | – | – | > 100 | > 100 µM | > 100 µM | –
8 | COc1ccc2c(=O)c(-c3cc(OC)c(OC)cc3OC)coc2c1 | > 100 | > 100 µM | – | > 24.6 µM | > 100 µM | > 100 | 8.07 | > 100 µM | – | –
9 | O=C(NCCCN1CCN(CCCNC(=O)c2cccc3ccccc23)CC1)c1cccc2ccccc12 | > 100 | > 100 µM | 73.5 µM | > 100 µM | – | > 100 | 93.9 | > 100 µM | > 100 µM | –
10 | S=C1SCC2CCCN12 (configuration not stated) | > 100 | > 100 µM | > 100 µM | > 100 µM | – | > 100 | – | > 100 µM | > 100 µM | –
11 | CCC/C=C/C=C/C(=O)OC1/C(=C/C(=O)OC)CC2CC(C(C)O)OC(=O)CC(O)CC3CC(OC(C)=O)C(C)(C)C(O)(CC4C/C(=C/C(=O)OC)CC(/C=C/C(C)(C)C1(O)O2)O4)O3 (configuration not stated) | – | 7.22 µM and 11 µM | > 10.9 µM and 11 µM | > 10.9 µM and 8.97 µM | 11 µM and > 12.5 µM | – | 11 | > 10.9 µM and 11 µM | 2.52 µM and 10.8 µM | GI50 (P388 leukemia): 9.73 µM; TGI (P388 leukemia): 10.9 µM and 11 µM; GI50 (SNB-78 CNS): 5.56 µM and 10.3 µM; GI50 (KM20L2 colon): > 10.9 µM and 6.51 µM; GI50 (MDA-N): > 12.5 µM; GI50 (DMS 114 small cell lung): > 10.9 µM and 2.92 µM; GI50 (XF 498 CNS): 4.43 µM; TGI (P388/ADR leukemia): 10.9 µM and 11 µM; GI50 (M19-MEL melanoma): > 10.9 µM and 7.88 µM; GI50 (HOP-18 NSCLC): 1.76 µM and 6.05 µM
12 | O=C(c1ccccc1)c1nc2c(Cl)ccc(Cl)c2cc1C(Br)Br | 1.55 | 5.94 µM | 2.51 µM | 6.19 µM | – | 3.86 | 2.29 | 6.26 µM | 3.17 µM | –
13 | NC(CSC(c1ccccc1)(c1ccccc1)c1ccccc1)C(=O)O (configuration not stated) | – | 95.9 µM | 5.47 µM | – | 12.5 µM | – | 7.77 | 117 µM | 116 µM | TGI (P388 leukemia): 38.8 µM; GI50 (SNB-78 CNS): 10.8 µM; GI50 (XF 498 CNS): 0.711 µM and 0.959 µM; TGI (P388/ADR leukemia): 125 µM; GI50 (M19-MEL melanoma): 5.07 µM
14 | Nc1nc(N)nc(CCCCc2nc(N)nc(N)n2)n1 | – | – | – | – | > 100 µM | – | – | – | – | –
15 | C=CCCC(O)c1cc(C)c(O)c(C)c1 (configuration not stated) | > 100 | > 100 µM | > 100 µM | > 100 µM | – | – | – | > 100 µM | > 100 µM | –
16 | N[C@H]1CCC[C@@H](O)C1O (some centres not stated) | – | – | – | – | > 100 µM | – | – | – | – | –
17 | CC(=O)OC1(Sc2ccccc2)CC2[C@H]3COC(C)(C)O[C@H]3CC[C@@]2(C)CC1=O (some centres not stated) | > 100 | > 100 µM | > 100 µM | > 100 µM | – | > 100 | 57.3 | > 100 µM | – | –
18 | CC1=CC(=O)NP(=O)(Oc2ccc(Cl)cc2)N1 (configuration not stated) | > 100 | > 100 µM | > 100 µM | > 100 µM | – | – | > 100 | > 100 µM | > 100 µM | –
19 | O=C(O)/C=C/c1c2ccc(=O)c(O)c-2oc2c(O)c(O)ccc12 | – | – | – | – | 34.5 µM | – | – | – | – | –
20 | N#CN1CC[C@@H]2CC3(CCC2C1)OCCO3 (some centres not stated) | > 100 | > 100 µM | > 100 µM | > 100 µM | – | > 100 | > 100 | > 100 µM | > 100 µM | –
21 | Cn1cc(-c2ccc3c4ccccc4n(C)c3c2)c2ccccc21 | > 100 | > 100 µM | > 100 µM | > 100 µM | – | – | – | > 100 µM | > 100 µM | –
